# In US8846656B2, “Tetrahydropyrido-pyridine and tetrahydropyrido-pyrimidine compounds and use thereof as C5a receptor modulators” (Novartis AG, priority 2011, dated 2014):
# Key:
# human C5aR = human C5aR (Homo sapiens (Human), UniProt P21730); test: FLIPR assay: inhibition of C5a-mediated calcium mobilization; format: cell-based; settings: stable cell line over expressing human C5aR & Gα15, human C5a at EC50 (0.1-0.25 nM)
# Procedure, shortened: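 Compounds were added for 30 minutes at room temperature (1% DMSO) ahead of C5a stimulation. Before this, cells were dye-loaded for 1 h at 37° C: calcium 5 with 2.5 mM probenecid in HBSS, 20 mM HEPES, 0.1% BSA. Cells co-express human C5aR and Gα15; read-out is FLIPR Tetra calcium flux.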
# CD11b = test: Human whole blood CD11b up-regulation assay; format: cell-based; settings: Homo sapiens, 2 nM human C5a, CD15+ granulocytes, read-out: hCD11b IC50
# Procedure, shortened: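 Flow cytometric read-out: CD11b median fluorescence intensity of CD15+ granulocytes, 10,000 events. Stimulus was 2 nM human C5a for 15 min at room temperature, following 10 min compound exposure in 1% DMSO in fresh sodium-heparin whole blood; staining done on ice and erythrocytes lysed.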
# physchem = settings: thermodynamic from solid, 24 hr Equilibrium Solubility
# Sequence of human C5aR (P21730 whole entry): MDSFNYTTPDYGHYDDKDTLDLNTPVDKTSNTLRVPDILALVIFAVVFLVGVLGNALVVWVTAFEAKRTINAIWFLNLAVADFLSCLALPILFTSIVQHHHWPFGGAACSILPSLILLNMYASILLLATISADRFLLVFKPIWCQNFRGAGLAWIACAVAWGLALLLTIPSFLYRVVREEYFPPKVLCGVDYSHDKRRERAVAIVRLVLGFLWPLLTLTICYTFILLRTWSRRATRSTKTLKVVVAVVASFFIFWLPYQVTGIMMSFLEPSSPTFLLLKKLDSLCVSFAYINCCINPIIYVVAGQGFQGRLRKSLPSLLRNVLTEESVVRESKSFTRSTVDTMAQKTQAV
SMILES,IC50 (human C5aR) [nM],IC50 (CD11b) [nM],further results
"CO[C@H]1C[C@H]2CC[C@@H](C1)N2c1nc(-c2c(C)ccc3[nH]nc(C)c23)nc2c1CN(c1cc(C(C)C)ccc1C)CC2 [Example 19-F, 2-(3,5-Dimethyl-1H-indazol-4-yl)-6-(5-isopropyl-2-methylphenyl)-4-((3-endo)-3-methoxy-8-azabicyclo[3.2.1]octan-8-yl)-5,6,7,8-tetrahydropyrido[4,3-d]pyrimidine]",4,13,"solubility thermodynamic at 24 h (physchem; oil or lipid): > 26500 µg/mL; solubility thermodynamic at 24 h (physchem; pH 1, simulated gastric fluid): < 0.5 µg/mL; solubility thermodynamic at 24 h (physchem; pH 4.5, aqueous buffer): < 0.5 µg/mL; solubility thermodynamic at 24 h (physchem; pH 5.5, fessif): < 0.5 µg/mL; solubility thermodynamic at 24 h (physchem; pH 6.5, fassif): < 0.5 µg/mL; solubility thermodynamic at 24 h (physchem; pH 6.8, aqueous buffer): < 0.5 µg/mL; solubility thermodynamic at 24 h (physchem; simulated gastric fluid): < 0.5 µg/mL; solubility thermodynamic at 24 h (physchem; water): < 0.5 µg/mL"
"Cc1c[nH]c2cccc(-c3nc4c(c(N5CCN(CC(N)=O)[C@H](C)C5)n3)CN(c3ccccc3C(F)(F)F)CC4)c12 [Example 24-D, (R)-2-(2-methyl-4-(2-(3-methyl-1H-indol-4-yl)-6-(2-(trifluoromethyl)phenyl)-5,6,7,8 tetrahydropyrido[4,3-d]pyrimidin-4-yl)piperazin-1-yl)acetamide]",91,1500,–
"CO[C@H]1CCN(c2nc(-c3c(C)ccc4[nH]nc(C)c34)nc3c2CN(c2cc(C(C)C)ccc2C)CC3)CC1(C)C [Example 19-AI, (S)-2-(3,5-dimethyl-1H-indazol-4-yl)-6-(5-isopropyl-2-methylphenyl)-4-(4-methoxy-3,3-dimethylpiperidin-1-yl)-5,6,7,8-tetrahydropyrido[4,3-d]pyrimidine]",2,7,–
"CCn1nc(C2CC2)c(Cl)c1N1CCc2nc(-c3c(C)ccc4[nH]nc(C)c34)nc(N3CC(N(C)C)C3)c2C1 [Example 70-K, 1-(6-(4-chloro-3-cyclopropyl-1-ethyl-1H-pyrazol-5-yl)-2-(3,5-dimethyl-1H-indazol-4-yl)-5,6,7,8-tetrahydropyrido[4,3-d]pyrimidin-4-yl)-N,N-dimethylazetidin-3-amine]",20,37,–
"CO[C@@H]1CCN(c2nc(-c3c(C)ccc4[nH]nc(C)c34)nc3c2CN(c2cc(C(C)C)nn2C)CC3)[C@H](C)C1 [Example 23-G, 2-(3,5-dimethyl-1H-indazol-4-yl)-6-(3-isopropyl-1-methyl-1H-pyrazol-5-yl)-4-((2R,4R)-4-methoxy-2-methylpiperidin-1-yl)-5,6,7,8-tetrahydropyrido[4,3-d]pyrimidine]",2,25,–
"CO[C@@H]1CCN(c2nc(-c3c(C)ccc4[nH]nc(C)c34)nc3c2CN(c2cc(C(F)(F)F)nn2C)CC3)[C@H](C)C1 [Example 23-J, 2-(3,5-dimethyl-1H-indazol-4-yl)-4-((2R,4R)-4-methoxy-2-methylpiperidin-1-yl)-6-(1-methyl-3-(trifluoromethyl)-1H-pyrazol-5-yl)-5,6,7,8-tetrahydropyrido[4,3-d]pyrimidine]",8,38,–
[2H]C1([2H])c2c(C)cc(-c3cccc4[nH]cc(C)c34)nc2CCN1c1cc(C(C)C)ccc1C [Example 40-S],78,793,–
"Cc1ccc(C(C)C)cc1N1CCc2nc(-c3c(C(C)C)ccc4[nH]ncc34)cc(C)c2C1 [Example 41-G, 2-(5-isopropyl-1H-indazol-4-yl)-6-(5-isopropyl-2-methylphenyl)-4-methyl-5,6,7,8-tetrahydro-1,6-naphthyridine]",3,70,–
"Cc1ccc(C(C)C)cc1N1CCc2nc(-c3c(C)ccc4[nH]nc(C)c34)nc(OCCN3CCOCC3)c2C1 [Example 63-I, 4-(2-((2-(3,5-dimethyl-1H-indazol-4-yl)-6-(5-isopropyl-2-methylphenyl)-5,6,7,8-tetrahydropyrido[4,3-d]pyrimidin-4-yl)oxy)ethyl)morpholine]",32,60,–
"COc1nc(-c2c(C)ccc3[nH]nc(C)c23)nc2c1CN(c1cc(C3(C)COC3)ccc1C)CC2 [Example 31-H, 2-(3,5-dimethyl-1H-indazol-4-yl)-4-methoxy-6-(2-methyl-5-(3-methyloxetan-3-yl)phenyl)-5,6,7,8-tetrahydropyrido[4,3-d]pyrimidine]",77,72,–
